Results taken from patent US20090143279A1 (priority 2007, published 2009).
Read-outs that look alike come from different tables or passages of the source.

Experiments:
[1] = tested on: C2C12 myotubes; conditions: for Viability (composite Z-score): normalized score vs mock-treated (DMSO) wells
[2] = tested on: nuOXPHOS transcripts; format: cell-based, mouse; conditions: for nucOX (composite Z-score): normalized score vs mock-treated (DMSO) wells
[3] = tested on: mtOXPHOS transcripts; format: cell-based, mouse; conditions: for mitoOX (composite Z-score): normalized score vs mock-treated (DMSO) wells
[4] = tested on: OXPHOS gene expression; format: cell-based, mouse; conditions: for GE-HTS (composite Z-score): normalized score vs mock-treated (DMSO) wells
[5] = tested on: reactive oxygen species; format: cell-based, mouse; conditions: for ROS (composite Z-score): normalized score vs mock-treated (DMSO) wells
[6] = tested on: mitochondrial membrane potential; format: cell-based, mouse; conditions: for ΔΨm (composite Z-score): normalized score vs mock-treated (DMSO) wells
[7] = tested on: cytochrome c; format: cell-based, mouse; conditions: for cyt c (composite Z-score): normalized score vs mock-treated (DMSO) wells
[8] = tested on: cellular dehydrogenase activity; conditions: for MTT (composite Z-score): normalized score vs mock-treated (DMSO) wells
[9] = normalized composite Z-score vs mock-treated (DMSO) wells, Conc 20 μM
[10] = composite Z-score vs mock-treated (DMSO) wells, Conc 20 μM
[11] = composite Z-score vs DMSO, Conc 20 μM
[12] = composite Z-score vs DMSO wells, Conc 20 μM
[13] = 20 μM, composite Z-score vs DMSO
[14] = composite Z-score vs mock-treated (DMSO) wells, concentration of each compound in μM

## C[C@@H]1O[C@@H](O[C@H]2[C@H](Oc3cc(O)c4c(=O)cc(-c5ccc(O)cc5)oc4c3)O[C@H](CO)[C@@H](O)[C@@H]2O)[C@H](O)[C@H](O)[C@H]1O [rhoifolin]
[1]; [9]
  Viability: 0.089
[2]; [9]
  nucOX: −0.774
[3]; [9]
  mitoOX: −0.768
[4]; [9]
  GE-HTS: −0.838
[5]; [9]
  ROS: 0.471
[6]; [9]
  ΔΨm: −0.213
[7]; [9]
  cyt c: 0.515
[8]; [9]
  MTT: −0.683

## C1COC(NC(C2CC2)C2CC2)=N1 [rilmenidine]
[1]
  Viability: 0.245
[2]
  nucOX: 0.319
[3]
  mitoOX: −0.313
[4]
  GE-HTS: 0.123
[5]
  ROS: 0.340
[6]
  ΔΨm: −0.589
[7]
  cyt c: −0.042
[8]
  MTT: 0.082

## COc1ccc(-c2c(OC)c3c(OC)c4c(cc3oc2=O)OC(C)(C)C=C4)cc1 [robustic acid methyl ether, reference compound]
[1]; Conc 20 μM
  Viability (composite Z-score): 0.497
[2]; Conc 20 μM
  nucOX (composite Z-score): 0.444
[3]; Conc 20 μM
  mitoOX (composite Z-score): −0.223
[4]; Conc 20 μM
  GE-HTS (composite Z-score): 0.230
[5]; Conc 20 μM
  ROS (composite Z-score): 1.431
[6]; Conc 20 μM
  ΔΨm (composite Z-score): 0.692
[7]; Conc 20 μM
  cyt c (composite Z-score): 0.679
[8]; Conc 20 μM
  MTT (composite Z-score): 0.474

## COc1ccc(-c2c(O)c3c(OC)c4c(cc3oc2=O)OC(C)(C)C=C4)cc1 [robustic acid, reference compound]
[1]; Conc 20 μM
  Viability (composite Z-score): −1.213
[2]; Conc 20 μM
  nucOX (composite Z-score): −0.973
[3]; Conc 20 μM
  mitoOX (composite Z-score): −0.587
[4]; Conc 20 μM
  GE-HTS (composite Z-score): −0.930
[5]; Conc 20 μM
  ROS (composite Z-score): −0.119
[6]; Conc 20 μM
  ΔΨm (composite Z-score): −1.086
[7]; Conc 20 μM
  cyt c (composite Z-score): −0.459
[8]; Conc 20 μM
  MTT (composite Z-score): −1.831

## COc1cc2c(cc1OC)[C@@H]1C(=O)c3ccc(OC)c(CC=C(C)C)c3O[C@@H]1CO2 [rotenonic acid, methyl ether]
[1]; [10]
  Viability: 0.582
[2]; [10]
  nucOX: −1.024
[3]; [10]
  mitoOX: −4.305
[4]; [10]
  GE-HTS: −2.268
[5]; [10]
  ROS: −3.513
[6]; [10]
  ΔΨm: −3.751
[7]; [10]
  cyt c: −3.644
[8]; [10]
  MTT: −3.898

## COc1cc2c(cc1OC)[C@@H]1C(=O)c3ccc(O)c(CC=C(C)C)c3O[C@@H]1CO2 [rotenonic acid, reference compound]
[1]; [10]
  Viability: 0.206
[2]; [10]
  nucOX: −0.010
[3]; [10]
  mitoOX: −0.108
[4]; [10]
  GE-HTS: −0.064
[5]; [10]
  ROS: 0.173
[6]; [10]
  ΔΨm: 0.050
[7]; [10]
  cyt c: 0.365
[8]; [10]
  MTT: −0.731

## CC[C@@]1(O)C[C@H](O)c2c(cc3c(c2O)C(=O)c2c(O)ccc(O)c2C3=O)[C@H]1C(=O)OC [rutilantinone]
[1]; [11]
  Viability: 0.192
[2]; [11]
  nucOX: −1.152
[3]; [11]
  mitoOX: −3.039
[4]; [11]
  GE-HTS: −1.917
[5]; [11]
  ROS: 2.445
[6]; [11]
  ΔΨm: −3.758
[7]; [11]
  cyt c: 0.372
[8]; [11]
  MTT: −2.979

## OCc1ccccc1O [salicyl alcohol]
[1]; [12]
  Viability: 0.377
[2]; [12]
  nucOX: −0.433
[3]; [12]
  mitoOX: −0.498
[4]; [12]
  GE-HTS: −0.486
[5]; [12]
  ROS: 0.479
[6]; [12]
  ΔΨm: −0.590
[7]; [12]
  cyt c: 0.424
[8]; [12]
  MTT: −0.178

## CC[C@@H](C(=O)[C@@H](C)[C@@H](O)[C@H](C)[C@@H]1O[C@@H]([C@@H](CC)C(=O)O)CC[C@@H]1C)[C@H]1O[C@]2(C=C[C@@H](O)[C@]3(CC[C@@](C)([C@H]4CC[C@](O)(CC)[C@H](C)O4)O3)O2)[C@H](C)C[C@@H]1C [salinomycin, reference compound]
[1]; [13]
  Viability: −0.247
[2]; [13]
  nucOX: −0.345
[3]; [13]
  mitoOX: −3.359
[4]; [13]
  GE-HTS: −1.400
[5]; [13]
  ROS: −3.111
[6]; [13]
  ΔΨm: 2.976
[7]; [13]
  cyt c: −0.566
[8]; [13]
  MTT: −2.918

## C[C@@H]1NCCc2cc(O)c(O)cc21 [salsolinol]
[1]; [14]
  Viability: −1.127
[2]; [14]
  nucOX: −0.197
[3]; [14]
  mitoOX: −0.397
[4]; [14]
  GE-HTS: −0.284
[5]; [14]
  ROS: −0.248
[6]; [14]
  ΔΨm: −0.160
[7]; [14]
  cyt c: −0.994
[8]; [14]
  MTT: −1.113
